Experimental data as given in PubChem BioAssay AID2060621 (Molecular Pharmacology Branch, DTP, NCI, 2025).

Test system: 324938-238-R-J1-PDC complex spheroids viability
Assay: Anticancer human tumor 324938-238-R-J1-PDC patient-derived bladder carcinoma cell line growth inhibition [CLK]
Conditions: for IC50: curve of first compound; for viability, T/C: stronger effect = lower value
Method in brief: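 Multi-cell-type spheroids combined patient-derived tumor cells with HUVEC endothelial cells and human mesenchymal stem cells. Paired agents were dosed in half-log steps down from about clinical Cmax, or from 10 microM where Cmax was unknown.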

[1] = second compound 0.0316 µM, first compound 0.0316 µM
[2] = second compound 0.0316 µM, first compound 0.1 µM
[3] = second compound 0.0316 µM, first compound 0.316 µM
[4] = second compound 0.0316 µM, first compound 1 µM
[5] = second compound 0.0316 µM, first compound 3.16 µM
[6] = second compound 0.0316 µM, first compound 10 µM
[7] = second compound 0.1 µM, first compound 0.0316 µM
[8] = second compound 0.1 µM, first compound 0.1 µM
[9] = second compound 0.1 µM, first compound 0.316 µM
[10] = second compound 0.1 µM, first compound 1 µM
[11] = second compound 0.1 µM, first compound 3.16 µM
[12] = second compound 0.1 µM, first compound 10 µM
[13] = second compound 0.316 µM, first compound 0.0316 µM
[14] = second compound 0.316 µM, first compound 0.1 µM
[15] = second compound 0.316 µM, first compound 0.316 µM
[16] = second compound 0.316 µM, first compound 1 µM
[17] = second compound 0.316 µM, first compound 3.16 µM
[18] = second compound 0.316 µM, first compound 10 µM
[19] = second compound 1 µM, first compound 0.0316 µM
[20] = second compound 1 µM, first compound 0.1 µM
[21] = second compound 1 µM, first compound 0.316 µM
[22] = second compound 1 µM, first compound 1 µM
[23] = second compound 1 µM, first compound 3.16 µM
[24] = second compound 1 µM, first compound 10 µM
[25] = second compound 3.16 µM, first compound 0.0316 µM
[26] = second compound 3.16 µM, first compound 0.1 µM
[27] = second compound 3.16 µM, first compound 0.316 µM
[28] = second compound 3.16 µM, first compound 1 µM
[29] = second compound 3.16 µM, first compound 3.16 µM
[30] = second compound 3.16 µM, first compound 10 µM
[31] = second compound 10 µM, first compound 0.0316 µM
[32] = second compound 10 µM, first compound 0.1 µM
[33] = second compound 10 µM, first compound 0.316 µM
[34] = second compound 10 µM, first compound 1 µM
[35] = second compound 10 µM, first compound 3.16 µM
[36] = second compound 10 µM, first compound 10 µM
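Note: viability read after seven days of drug exposure.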
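Throughout, for viability, T/C: 100% = DMSO vehicle control wells.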

SMILES: C#Cc1c(F)ccc2cc(O)cc(-c3ncc4c(N5CC6CCC(C5)N6)nc(OCC56CCCN5CC(F)C6)nc4c3F)c12 (centres undefined) + CNC(=O)c1ccc(Nc2nc(OC3CCCC3)c3c(-c4ccc5nc(C)oc5c4)c[nH]c3n2)c(OC)c1
- IC50 (second compound 0.0316 µM): 4700 nM
- IC50 (second compound 0.1 µM): < 31.6 nM
- IC50 (second compound 0.316 µM): < 31.6 nM
- IC50 (second compound 1 µM): < 31.6 nM
- IC50 (second compound 3.16 µM): < 31.6 nM
- IC50 (second compound 10 µM): < 31.6 nM
- viability, T/C [1]: 73.7%
- viability, T/C [2]: 87.6%
- viability, T/C [3]: 71.8%
- viability, T/C [4]: 69.6%
- viability, T/C [5]: 57.8%
- viability, T/C [6]: 35.7%
- viability, T/C [7]: 29.6%
- viability, T/C [8]: 29.6%
- viability, T/C [9]: 21.5%
- viability, T/C [10]: 22.8%
- viability, T/C [11]: 20.5%
- viability, T/C [12]: 18.6%
- viability, T/C [13]: 20.1%
- viability, T/C [14]: 18.9%
- viability, T/C [15]: 14.5%
- viability, T/C [16]: 16.9%
- viability, T/C [17]: 12.7%
- viability, T/C [18]: 14.8%
- viability, T/C [19]: 14.8%
- viability, T/C [20]: 14.9%
- viability, T/C [21]: 13.8%
- viability, T/C [22]: 15.1%
- viability, T/C [23]: 14.8%
- viability, T/C [24]: 15.6%
- viability, T/C [25]: 13.5%
- viability, T/C [26]: 16.4%
- viability, T/C [27]: 14.8%
- viability, T/C [28]: 16.8%
- viability, T/C [29]: 12.4%
- viability, T/C [30]: 12.4%
- viability, T/C [31]: 15.9%
- viability, T/C [32]: 18%
- viability, T/C [33]: 16.2%
- viability, T/C [34]: 16.8%
- viability, T/C [35]: 16.2%
- viability, T/C [36]: 11.5%

SMILES: CC(CO)NC(=O)c1cc(-c2ccc(Cl)cc2)nn(-c2cnn(C)c2)c1=O (centres undefined) + CNC(=O)c1ccc(Nc2nc(OC3CCCC3)c3c(-c4ccc5nc(C)oc5c4)c[nH]c3n2)c(OC)c1
- IC50 (second compound 0.0316 µM): > 10000 nM
- IC50 (second compound 0.1 µM): < 31.6 nM
- IC50 (second compound 0.316 µM): < 31.6 nM
- IC50 (second compound 1 µM): < 31.6 nM
- IC50 (second compound 3.16 µM): < 31.6 nM
- IC50 (second compound 10 µM): < 31.6 nM
- viability, T/C [1]: 82.2%
- viability, T/C [2]: 90.3%
- viability, T/C [3]: 89.1%
- viability, T/C [4]: 81.1%
- viability, T/C [5]: 66.1%
- viability, T/C [6]: 50.6%
- viability, T/C [7]: 28.9%
- viability, T/C [8]: 33.2%
- viability, T/C [9]: 34.6%
- viability, T/C [10]: 35%
- viability, T/C [11]: 29.4%
- viability, T/C [12]: 28%
- viability, T/C [13]: 19%
- viability, T/C [14]: 19.3%
- viability, T/C [15]: 21.6%
- viability, T/C [16]: 18.7%
- viability, T/C [17]: 19.1%
- viability, T/C [18]: 21.1%
- viability, T/C [19]: 16.4%
- viability, T/C [20]: 16%
- viability, T/C [21]: 15.9%
- viability, T/C [22]: 16.9%
- viability, T/C [23]: 18.4%
- viability, T/C [24]: 18.6%
- viability, T/C [25]: 15.9%
- viability, T/C [26]: 15.5%
- viability, T/C [27]: 15.1%
- viability, T/C [28]: 16.2%
- viability, T/C [29]: 18.1%
- viability, T/C [30]: 17.6%
- viability, T/C [31]: 17.3%
- viability, T/C [32]: 16.3%
- viability, T/C [33]: 15.2%
- viability, T/C [34]: 16.5%
- viability, T/C [35]: 17%
- viability, T/C [36]: 15.6%
